Measurements from ChEMBL document CHEMBL1131981, “Heterocyclic analogues of 2-aminotetralins with high affinity and selectivity for the dopamine D3 receptor” (Bioorg Med Chem Lett, 1999).

Tests used:
[1] = target: T1, D(2) dopamine receptor (Homo sapiens, UniProt P14416); test: Tested for the ability to displace [125I]iodosulpiride from human cloned Dopamine receptor D2, expressed in CHO cells.; assay type: cell-based
[2] = target: T2, D(3) dopamine receptor (Homo sapiens, UniProt P35462); test: Functional activity in vitro using microphysiometry at Dopamine receptor D3; Agonist; settings: filed as agonist
[3] = target: T2, D(3) dopamine receptor
Description: Tested for the ability to displace [125I]iodosulpiride from human cloned Dopamine receptor D3, expressed in CHO cells

[4] = target: T2, D(3) dopamine receptor; test: Tested for the functional activity in vitro using microphysiometry at Dopamine receptor D3; antagonist; settings: filed as antagonist
[5] = target: T1, D(2) dopamine receptor; test: Displacement of [125I]iodosulpiride from human Dopamine receptor D2 expressed in CHO cells; assay type: cell-based

T1 sequence (P14416 whole entry): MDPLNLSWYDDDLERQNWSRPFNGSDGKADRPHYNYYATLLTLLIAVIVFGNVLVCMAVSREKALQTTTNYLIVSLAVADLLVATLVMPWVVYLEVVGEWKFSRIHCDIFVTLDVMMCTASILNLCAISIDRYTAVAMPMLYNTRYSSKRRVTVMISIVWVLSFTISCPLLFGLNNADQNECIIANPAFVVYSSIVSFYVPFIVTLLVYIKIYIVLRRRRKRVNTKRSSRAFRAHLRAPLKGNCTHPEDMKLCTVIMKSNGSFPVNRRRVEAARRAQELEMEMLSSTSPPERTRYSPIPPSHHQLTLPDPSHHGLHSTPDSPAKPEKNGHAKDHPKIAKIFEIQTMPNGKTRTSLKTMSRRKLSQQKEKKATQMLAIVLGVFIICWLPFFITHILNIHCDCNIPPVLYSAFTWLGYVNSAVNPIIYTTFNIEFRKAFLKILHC
T2 sequence (P35462 whole entry): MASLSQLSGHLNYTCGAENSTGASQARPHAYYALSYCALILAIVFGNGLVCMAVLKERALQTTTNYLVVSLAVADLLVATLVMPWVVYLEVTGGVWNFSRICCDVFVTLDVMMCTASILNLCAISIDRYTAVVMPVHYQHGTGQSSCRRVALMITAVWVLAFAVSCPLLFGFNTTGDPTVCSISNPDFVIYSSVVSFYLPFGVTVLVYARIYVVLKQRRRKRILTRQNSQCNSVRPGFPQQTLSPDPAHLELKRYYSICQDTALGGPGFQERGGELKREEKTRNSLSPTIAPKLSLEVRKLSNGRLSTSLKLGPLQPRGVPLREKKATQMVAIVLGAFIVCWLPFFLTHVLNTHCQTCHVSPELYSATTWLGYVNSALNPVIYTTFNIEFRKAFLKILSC

Compound | Ki [1] | Function [2] | Ki [3] | Function [4] | Ki [5]
CCCN(CCCCNC(=O)c1ccc(-c2ccccc2)cc1)C1CCc2ncnc(OC)c2C1 (stereo not given) | 1580 nM | Agonist | 3.16 nM | – | –
CCCN(CCCCNC(=O)c1ccc(-c2ccccc2)cc1)C1CCc2n[nH]cc2C1 (stereo not given) | 501 nM | Agonist | 3.16 nM | – | –
CCCN1COC[C@@H]2c3cc(O)ccc3OC[C@H]21 | – | – | 25.1 nM | – | 2510 nM
CN(CCCCNC(=O)c1ccc(-c2ccccc2)cc1)C1CCc2nc(N)ncc2C1 (stereo not given) | 1580 nM | Agonist | 10 nM | – | –
CCCN(CCCCNC(=O)c1ccc(-c2ccccc2)cc1)C1CCc2nc(N)sc2C1 (stereo not given) | 200 nM | Agonist | 0.501 nM | – | –
CCCNC1CCc2nc(N)sc2C1 (stereo not given) | – | – | 10 nM | – | –

Further lines, with some results ahead:

Ki [1] | Function [2] | Ki [3] | Function [4] | Compound | Ki [5]
2510 nM | Agonist | 7.94 nM | – | CCCN(CCCCNC(=O)c1ccc(-c2ccccc2)cc1)C1CCc2nc(C)ncc2C1 (stereo not given) | –
1580 nM | – | 25.1 nM | Antagonist | CCCN(CCCCNC(=O)c1ccc(-c2ccccc2)cc1)C1CCc2nc(N(C)C)ncc2C1 (stereo not given) | –
2510 nM | Agonist | 15.8 nM | – | CCCN(CCCCNC(=O)c1ccc(-c2ccccc2)cc1)C1CCc2nc(NC)ncc2C1 (stereo not given) | –
1580 nM | – | 12.6 nM | Antagonist | CCCN(CCCCNC(=O)c1ccc(-c2ccccc2)cc1)C1CCc2nc(C(C)(C)C)ncc2C1 (stereo not given) | –
158 nM | Agonist | 0.794 nM | – | CCCN(CCCCNC(=O)c1ccc(-c2ccccc2)cc1)C1CCc2nc(N)ncc2C1 (stereo not given) | –
1260 nM | – | 15.8 nM | Antagonist | CCCN(CCCCNC(=O)c1ccc(-c2ccccc2)cc1)C1CCc2nc(SC)ncc2C1 (stereo not given) | –
1260 nM | – | 126 nM | – | CCCN(CCCCNC(=O)c1ccc(-c2ccccc2)cc1)C1CCc2ncncc2C1 (stereo not given) | –
